Measured values published in patent US5109111A, “CRF antagonists” (The Salk Institute for Biological Studies, priority 1990, dated 1992).
Square brackets hold non-standard residues; d marks the D form. Peptide text beside a SMILES is read from it. dNle = CCCC[C@@H](N)C(=O)O; Nle = CCCC[C@H](N)C(=O)O; Nva = CCC[C@H](N)C(=O)O

Tested on: secretion of ACTH stimulated by oCRF in cultured rat pituitary cells
Test: Blocking of oCRF-stimulated ACTH and β-endorphin secretion by cultured rat pituitary cells
Format: cell-based
Conditions: ACTH secretion stimulated by a 1 nM dose of oCRF; AHC(9-41) = reference
Procedure: The effectiveness of synthetic CRF antagonists to block the secretion of ACTH and β-endorphin by cultured rat pituitary cells is measured using the procedure as generally set forth in Vale et al., Endocrinology, 91, 562 (1972).

Row | Molecule | potency compared to AHC(9-41) in blocking by 50% the secretion of ACTH
1 | [D-2Nal^12, Nle^21,38 ]-hCRF(12-41) [X] | about 9 times as potent as AHC(9-41)
2 | [Nle^21,38, Arg^37 ]-hCRF(12-41) [IX] | more than 6 times as potent as AHC(9-41)

Same assay, conditions: result in words

Row | Molecule | inhibition of the secretion of ACTH and β-END-LI
3 | CCCC[C@H](NC(=O)[C@H](CC(C)C)NC(=O)[C@H](CC(C)C)NC(=O)[C@H](CCCNC(=N)N)NC(=O)[C@H](CC(N)=O)NC(=O)[C@H](CC(C)C)NC(=O)[C@H](C)NC(=O)[C@H](C)NC(=O)[C@H](CCC(N)=O)NC(=O)[C@H](CCC(=O)O)NC(=O)[C@H](C)NC(=O)[C@H](C)NC(=O)[C@H](CCC(N)=O)NC(=O)[C@H](CCC(=O)O)NC(=O)[C@H](C)NC(=O)[C@H](CCCCN)NC(=O)[C@H](C)NC(=O)[C@H](CC(C)C)NC(=O)[C@H](CCC(=O)O)NC(=O)[C@H](CC(C)C)NC(=O)[C@H](CCCC)NC(=O)[C@H](CCC(=O)O)NC(=O)[C@H](CCCNC(=N)N)NC(=O)[C@H](CC(C)C)NC(=O)[C@H](CC(C)C)NC(=O)[C@H](Cc1c[nH]cn1)NC(=O)[C@@H](N)Cc1ccccc1)C(=O)N[C@@H](CCC(=O)O)C(=O)N[C@@H](CCC(=O)O)C(=O)N[C@@H](C)C(N)=O [XXII, [Nle^18,38, Leu^21, Ala^27]-AHC (12-41)] (H-FHLLRE[Nle]LELAKAEQAAEQAALNRLL[Nle]EEA-NH2) | inhibits the secretion of ACTH and β-END-LI
4 | CCCC[C@H](NC(=O)[C@H](CC(C)C)NC(=O)[C@H](CC(C)C)NC(=O)[C@H](CCCNC(=N)N)NC(=O)[C@H](CC(N)=O)NC(=O)[C@H](CC(C)C)NC(=O)[C@H](C)NC(=O)[C@H](C)NC(=O)[C@H](CCC(N)=O)NC(=O)[C@H](CCC(=O)O)NC(=O)[C@H](C)NC(=O)[C@H](CCC(=O)O)NC(=O)[C@H](CCCCN)NC(=O)[C@H](CCC(=O)O)NC(=O)[C@H](C)NC(=O)[C@H](CCCCN)NC(=O)[C@H](CCC(=O)O)NC(=O)[C@H](CCSC)NC(=O)[C@H](CCC(=O)O)NC(=O)[C@H](CC(C)C)NC(=O)[C@H](CCSC)NC(=O)[C@H](CCC(=O)O)NC(=O)[C@H](CCCNC(=N)N)NC(=O)[C@H](CC(C)C)NC(=O)[C@H](CC(C)C)NC(=O)[C@H](CCC(=O)O)NC(=O)[C@@H](N)CC(C)C)C(=O)N[C@@H](CCC(=O)O)C(=O)N[C@@H](CCC(=O)O)C(=O)N[C@@H](C)C(N)=O [XXIII, [Leu^12, Glu^13,22, Lys^26, Nle^38]-AHC (12-41)] (H-LELLREMLEMEKAEKEAEQAALNRLL[Nle]EEA-NH2) | inhibits the secretion of ACTH and β-END-LI
5 | CCCC[C@H](NC(=O)[C@H](CC(C)C)NC(=O)[C@H](CC(C)C)NC(=O)[C@H](CCCNC(=N)N)NC(=O)[C@H](CC(N)=O)NC(=O)[C@H](C)NC(=O)[C@H](C)NC(=O)[C@H](C)NC(=O)[C@H](CCC(N)=O)NC(=O)[C@H](CCC(=O)O)NC(=O)[C@H](C)NC(=O)[C@H](CCC(=O)O)NC(=O)[C@H](CCC(N)=O)NC(=O)[C@H](CCC(=O)O)NC(=O)[C@H](C)NC(=O)[C@H](CCCCN)NC(=O)[C@H](C)NC(=O)[C@H](CCSC)NC(=O)[C@H](CCC(=O)O)NC(=O)[C@H](CC(C)C)NC(=O)[C@H](CCSC)NC(=O)[C@H](CCC(=O)O)NC(=O)[C@H](CCCNC(=N)N)NC(=O)[C@H](CC(C)C)NC(=O)[C@H](CC(C)C)NC(=O)[C@H](CCC(=O)O)NC(=O)[C@H](N)CC(C)C)C(=O)N[C@@H](CCC(=O)O)C(=O)N[C@@H](CCC(=O)O)C(=O)N[C@@H](C)C(N)=O [XXV, [D-Leu^12, Glu^13, Ala^33, Nle^38]-AHC (12-41)] (H-[dL]ELLREMLEMAKAEQEAEQAAANRLL[Nle]EEA-NH2) | inhibits the secretion of ACTH and β-END-LI
6 | CCCC[C@@H](N)C(=O)N[C@@H](Cc1c[nH]cn1)C(=O)N[C@@H](CC(C)C)C(=O)N[C@@H](CC(C)C)C(=O)N[C@@H](CCCNC(=N)N)C(=O)N[C@@H](CCC(=O)O)C(=O)N[C@@H](CCCC)C(=O)N[C@@H](CC(N)=O)C(=O)N[C@@H](CCC(=O)O)C(=O)N[C@@H](CCCC)C(=O)N[C@@H](CC(=O)O)C(=O)N[C@@H](CCCCN)C(=O)N[C@@H](C)C(=O)N[C@@H](CCC(=O)O)C(=O)N[C@@H](CCC(N)=O)C(=O)N[C@@H](Cc1ccccc1)C(=O)N[C@@H](C)C(=O)N[C@@H](CCC(=O)O)C(=O)N[C@@H](CCC(N)=O)C(=O)N[C@@H](C)C(=O)N[C@@H](C)C(=O)N[C@@H](CC(C)C)C(=O)N[C@@H](CC(N)=O)C(=O)N[C@@H](CCCNC(=N)N)C(=O)N[C@@H](CC(C)C)C(=O)N[C@@H](CC(C)C)C(=O)N[C@@H](CCCC)C(=O)N[C@@H](CCC(=O)O)C(=O)N[C@@H](CCC(=O)O)C(=O)N[C@@H](C)C(N)=O [XXVII, [D-Nle^12, Nle^18,21,38, Asn^19, Asp^22, Phe^27]-AHC(12-41)] (H-[dNle]HLLRE[Nle]NE[Nle]DKAEQFAEQAALNRLL[Nle]EEA-NH2) | inhibits the secretion of ACTH and β-END-LI
7 | CCCC[C@H](NC(=O)[C@H](CCCCN)NC(=O)[C@H](C)NC(=O)[C@H](CCSC)NC(=O)[C@H](CCC(=O)O)NC(=O)[C@H](C)NC(=O)[C@@H](NC(=O)[C@H](CCC(=O)O)NC(=O)[C@H](CCCNC(=N)N)NC(=O)[C@H](CC(C)C)NC(=O)[C@H](CC(C)C)NC(=O)[C@H](Cc1c[nH]cn1)NC(=O)[C@H](N)Cc1ccc(O)cc1)C(C)C)C(=O)N[C@@H](CCC(=O)O)C(=O)N[C@@H](CCC(N)=O)C(=O)N[C@@H](CCC)C(=O)N[C@@H](C)C(=O)N[C@@H](CCC(N)=O)C(=O)N[C@@H](CCC(N)=O)C(=O)N[C@@H](C)C(=O)N[C@@H](Cc1c[nH]cn1)C(=O)N[C@@H](CO)C(=O)N[C@@H](CC(N)=O)C(=O)N[C@@H](CCCNC(=N)N)C(=O)N[C@@H](CCCCN)C(=O)N[C@@H](CC(C)C)C(=O)N[C@@H](CCCC)C(=O)N[C@@H](CCC(=O)O)C(=O)N[C@@H](CCCC)C(=O)N[C@H](C(N)=O)[C@@H](C)CC [XXX, [D-Tyr^12, Ala^19, Lys^23, Nle^24,38,40 Nva^27,]-hCRF(12-41)] (H-[dY]HLLREVAEMAK[Nle]EQ[Nva]AQQAHSNRKL[Nle]E[Nle]I-NH2) | inhibits the secretion of ACTH and β-END-LI
8 | [4ClD-Phe^12, Nle^18,21,38 ]-AHC(9-41) [XX] | inhibits the secretion of ACTH and β-END-LI
9 | [4FD-Phe^12, CML^14,15,19,27,33,37, CMA^22,32,41, Nle^38 ]-AHC(12-41) [XIX] | inhibits the secretion of ACTH and β-END-LI
10 | [CML^14,19,27,36, Nle^38 ]-AHC(12-41) [XXVI] | inhibits the secretion of ACTH and β-END-LI
11 | [D-2Nal^12, Nle^21,38 ]-hCRF(12-41) [X] | inhibits the secretion of ACTH and β-END-LI
12 | [D-Val^12, Nle^21,38, Ile^24,27, Nva^41 ]-hCRF(11-41) [XXVIII] | inhibits the secretion of ACTH and β-END-LI
13 | [Nle^21,38, Arg^37 ]-hCRF(12-41) [IX] | inhibits the secretion of ACTH and β-END-LI
